Laboratory results published in patent US20260256751A1, “COMBINATION OF BETA-2-ADRENERGIC RECEPTOR AGONISTS AND GLP-1 RECEPTOR AGONISTS FOR USE IN TREATING HYPERGLYCAEMIA” (ATROGI AB, priority 2023, published 2026).

Assays:
[1] = system: differentiated L6-myotubes; assay: cAMP production relative to isoprenaline (Biological example 2 of WO 2019/053427); assay type: cell-based; conditions: 0.25 h, compound at 10 μM, activity relative to isoproterenol at 10 μM
Procedure, shortened: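 Differentiated L6 myotubes stimulated 15 min with test compound or isoprenaline, each at final 1×10^−5 M, in HBSS with 1% BSA, 5 mM HEPES, 1 mM IBMX, pH 7.4. cAMP production by the compound expressed relative to that induced by the same concentration of isoprenaline.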

[2] = system: differentiated L6-myotubes; assay: Glucose uptake screen (Biological example 1 of WO 2019/053427); assay type: cell-based; conditions: compound at 10 μM, activity relative to isoproterenol at 10 μM, read-out: Biological example 1 of WO 2019/053427 (GU)
Procedure, shortened: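 Rat L6 myoblasts were differentiated into myotubes over 7 days in 2% FBS, then serum-starved overnight. Cells were stimulated with 1×10^−5 M compound plus β2 antagonist ICI-118551 for 1 h 40 min and re-dosed for 20 min in glucose-free medium. Uptake of 50 nM ^3H-2-deoxyglucose over 10 min was counted after NaOH lysis.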

Structure (SMILES) | Emax at 10 µM [1] | Emax at 10 µM [2]
O[C@@H](CNCCC[C@H]1CC[C@@H](O)CC1)c1cccc(F)c1 [Compound 306, (R)-1-(m-fluorophenyl)-2-{3-[(1s,4R)-4-hydroxycyclohexyl]propylamino}-1-ethanol] | < 25% | 25 to 50%
COC(=O)[C@H]1CC[C@H](CC(C)(C)NC[C@H](O)c2cncc(F)c2)CC1 [Compound 354, methyl (1R,4r)-4-{2-[(R)-2-(5-fluoro-3-pyridyl)-2-hydroxyethylamino]-2-methylpropyl}cyclohexanecarboxylate] | < 25% | 50 to 75%
Cn1ccc([C@@H](O)CNC(C)(C)C)cc1=O [Compound 98, 4-[(R)-2-(tert-butylamino)-1-hydroxyethyl]-1-methyl-2(1H)-pyridinone] | < 25% | > 75%
CO[C@H]1CC[C@H](CCNC[C@H](O)c2cncc(F)c2)CC1 [Compound 225, (R)-1-(5-fluoro-3-pyridyl)-2-{2-[(1r,4R)-4-methoxycyclohexyl]ethyl-amino}-1-ethanol] | < 25% | 50 to 75%
CC(C)(CC[C@H]1CC[C@H](O)CC1)NC[C@H](O)c1cccc(F)c1 [Compound 290, (R)-2-{1,1-dimethyl-3-[(1r,4S)-4-hydroxycyclohexyl]propyl-amino}-1-(m-fluorophenyl)-1-ethanol] | < 25% | 25 to 50%
O[C@@H](CNC[C@H]1CC[C@H](OCc2ccccc2)CC1)c1cncc(F)c1 [Compound 273, (R)-1-(5-fluoro-3-pyrdiyl)-2-({[(1r,4R)-4-(benzyloxy)cyclohexyl]methyl}amino)-1-ethanol] | < 25% | 25 to 50%
Oc1ccc(C(O)CNCCC2CCCCC2)cc1 (stereo not shown) [Compound 16, 2-(2-cyclohexylethylamino)-1-(p-hydroxyphenyl)-1-ethanol] | < 25% | 25 to 50%
COC(=O)[C@H]1CC[C@@H](CCC(C)(C)NC[C@H](O)c2cncc(F)c2)CC1 [Compound 349, methyl (1S,4s)-4-{3-[(R)-2-(5-fluoro-3-pyridyl)-2-hydroxyethylamino]-3-methylbutyl}cyclohexanecarboxylate] | 25 to 50% | > 75%
CO[C@H]1CC[C@H](C[C@@H]2CC[C@H]([C@@H](O)c3ccccc3F)N2)CC1 [Compound 336] | < 25% | 25 to 50%
CN(C)S(=O)(=O)[C@H]1CC[C@H](CC(C)(C)NC[C@H](O)c2cccc(F)c2)CC1 [Compound 464, (R)-2-{1,1-dimethyl-2-[(1r,4R)-4-(dimethylaminosulfonyl)cyclohexyl]ethylamino}-1-(m-fluorophenyl)-1-ethanol] | 25 to 50% | 25 to 50%
CCC[C@H]1CC[C@@H]([C@H](O)c2cccc(F)c2)N1 [Compound 130] | < 25% | 25 to 50%
CS(=O)(=O)N[C@H]1CC[C@H](CNC[C@H](O)c2cccc(F)c2)CC1 [Compound 311, (R)-1-(m-fluorophenyl)-2-({[(1r,4R)-4-(mesylamino)cyclohexyl]methyl}amino)-1-ethanol] | < 25% | 50 to 75%
CC(C)(C[C@H]1CC[C@H](NS(C)(=O)=O)CC1)NC[C@H](O)c1cncc(F)c1 [Compound 360, (R)-2-{1,1-dimethyl-2-[(1r,4R)-4-(mesylamino)cyclohexyl]ethylamino}-1-(5-fluoro-3-pyridyl)-1-ethanol] | < 25% | > 75%
CC(C)(C)NC[C@H](O)c1ccc(F)cn1 [Compound 96, (S)-2-(tert-butylamino)-1-(5-fluoro-2-pyridyl)-1-ethanol] | < 25% | 50 to 75%
CS(=O)(=O)Nc1cccc(CC23CCC([C@@H](O)c4cccc(F)c4)(CC2)N3)c1 [Compound 514, (S)-(m-fluorophenyl)(4-{[m-(mesylamino)phenyl]methyl}-7-azabicyclo[2.2.1]hept-1-yl)methanol] | < 25% | 50 to 75%
CC(C)(C)NC[C@H](O)c1ccc(F)cc1O [Compound 80, (R)-2-(tert-butylamino)-1-(4-fluoro-2-hydroxyphenyl)-1-ethanol] | < 25% | 50 to 75%
CCCC(C)NC(C)C(O)c1ccc(O)cc1 (stereo not shown) [Compound 13, 1-(p-hydroxyphenyl)-2-(1-methylbutylamino)-1-propanol] | < 25% | 50 to 75%
CC(C)(C)NC[C@H](O)c1cccc(F)c1 [Compound 54, (R)-2-(tert-butylamino)-1-(m-fluorophenyl)-1-ethanol] | < 25% | > 75%

Structure (SMILES) | Emax at 10 µM [1] | Emax at 10 µM [2]
O=C(N[C@H]1CC[C@H](CNC[C@H](O)c2cncc(F)c2)CC1)c1ccccc1 [Compound 317, N-[(1R,4r)-4-{[(R)-2-(5-fluoro-3-pyridyl)-2-hydroxyethylamino]methyl}cyclohexyl]benzamide] | < 25% | 50 to 75%
CC(C)(C[C@H]1CC[C@H](O)CC1)NC[C@H](O)c1cncc(F)c1 [Compound 299, (R)-2-{1,1-dimethyl-2-[(1r,4R)-4-hydroxycyclohexyl]ethylamino}-1-(5-fluoro-3-pyridyl)-1-ethanol] | < 25% | 50 to 75%
CC(C)(NC[C@H](O)c1cncc(F)c1)[C@H]1CC[C@@H](O)CC1 [Compound 286, (R)-1-(5-fluoro-3-pyridyl)-2-{1-methyl-1-[(1s,4S)-4-hydroxycyclohexyl]ethyl-amino}-1-ethanol] | < 25% | 25 to 50%
CC(C)(C[C@H]1CC[C@H](C(=O)O)CC1)NC[C@H](O)c1cccc(F)c1 [Compound 355, (1R,4r)-4-{2-[(R)-2-(m-fluorophenyl)-2-hydroxyethylamino]-2-methylpropyl}cyclohexanecarboxylic acid] | < 25% | 50 to 75%
O[C@@H](c1cncc(F)c1)C12CCC(CCCc3ccccc3)(CC1)N2 [Compound 531, (S)-(5-fluoro-3-pyridyl){4-(3-phenylpropyl)-7-azabicyclo[2.2.1]hept-1-yl}methanol] | < 25% | 50 to 75%
CC(=O)N[C@H]1CC[C@H](CC(C)(C)NC[C@@H](O)c2cccc(C#N)n2)CC1 [Compound 427, N-[(1R,4r)-4-{2-[(R)-2-(6-cyano-2-pyridyl)-2-hydroxyethylamino]-2-methylpropyl}cyclohexyl]acetamide] | < 25% | < 25%
CCCC12CCC([C@H](O)c3cccc(F)c3)(CC1)N2 [Compound 183, (R)-(m-fluorophenyl)(4-propyl-7-azabicyclo[2.2.1]hept-1-yl)methanol] | 25 to 50% | 50 to 75%
COc1ccc(CCC23CCC([C@H](O)c4cncc(F)c4)(CC2)N3)cc1 [Compound 542, (R)-(5-fluoro-3-pyridyl){4-[2-(p-methoxyphenyl)ethyl]-7-azabicyclo[2.2.1]hept-1-yl}methanol] | 25 to 50% | 50 to 75%
CC(C)(NC[C@H](O)c1cccc(F)c1)[C@H]1CC[C@@H](O)CC1 [Compound 284, (R)-1-(m-fluorophenyl)-2-{1-methyl-1-[(1s,4S)-4-hydroxycyclohexyl]ethyl-amino}-1-ethanol] | < 25% | 50 to 75%
CC(C)CS(=O)(=O)N[C@H]1CC[C@H](CC(C)(C)NC[C@H](O)c2cncc(F)c2)CC1 [Compound 526, (R)-2-{1,1-dimethyl-2-[(1r,4R)-4-(isobutylsulfonylamino)cyclohexyl]ethylamino}-1-(5-fluoro-3-pyridyl)-1-ethanol] | < 25% | 50 to 75%
CCC[C@H]1CC[C@H]([C@H](O)c2cccc(F)c2)N1 [Compound 124, (R)-[(2R,5S)-5-propyl-2-pyrrolidinyl](m-fluorophenyl)methanol] | < 25% | 50 to 75%
CC(C)(NC[C@H](O)c1cccc(F)c1)[C@H]1CC[C@@H](OCC(=O)O)CC1 [Compound 408, [(1S,4s)-4-{1-[(R)-2-(m-fluorophenyl)-2-hydroxyethylamino]-1-methylethyl}cyclohexyloxy]acetic acid] | < 25% | 50 to 75%
C[C@H]1CC[C@@H]([C@H](O)c2cccc(O)c2)N1 (racemic) [Compound 40, Racemic mixture of m-{(R)-[(2S,5S)-5-methyl-2-pyrrolidinyl]hydroxymeth-yl}phenol and m-{(S)-[(2R,5R)-5-methyl-2-pyrrolidinyl]hydroxymeth-yl}phenol] | < 25% | 50 to 75%
CC12CC(C1)[C@H]([C@H](O)c1cccc(N)c1F)N2 [Compound 241, (R)-{(R)-1-methyl-2-azabicyclo[2.1.1]hex-3-yl}(3-amino-2-fluorophenyl)methanol] | < 25% | > 75%
CC(C)(C)NCC(O)c1ccncc1O (stereo not shown) [Compound 134, 4-[2-(tert-butylamino)-1-hydroxyethyl]-3-pyridinol] | < 25% | > 75%
O[C@H](c1cccc(F)c1)C12CCC(COCc3ccc(OC(F)(F)F)cc3)(CC1)N2 [Compound 488, (R)-(m-fluorophenyl)(4-{[(p-trifluoromethoxyphenyl)methoxy]methyl}-7-azabicyclo[2.2.1]hept-1-yl)methanol] | < 25% | < 25%
O[C@@H](CNC1(C(F)(F)F)CC1)c1cccc(F)c1 [Compound 118, (R)-1-(m-fluorophenyl)-2-[1-(trifluoromethyl)cyclopro-pylamino]-1-ethanol] | < 25% | 50 to 75%
